Test results published in patent publication US20260376293A1, “METHODS FOR STUDYING GPR158 PHARMACOLOGY AND IDENTIFICATION OF ITS LIGANDS” (UNIVERSITY OF FLORIDA RESEARCH FOUNDATION, INCORPORATED, priority 2022, published 2026).

Experiments:
GlyRs = conditions: cited from earlier work
[1] = tested on: layer V pyramidal neurons; experiment: Whole cell recordings, layer V prelimbic cortex neurons, WT mice; type: cell-based, mouse; conditions: glycine 1 mM
Procedure: FIGS. 15A-15H. Effect of glycine and taurine on excitability of layer V neurons and membrane properties of layer II/III neurons in wild type and GPR158 knockout mice. A) Representative traces of voltage responses to a 200 pA current ramp injection obtained from layer V pyramidal neurons in WT mice under control conditions and during bath application of glycine (1 mM). B) Quantification of glycine effects on neuronal excitability by number of action potentials fired in response to 200 pA current ramp under control condition and glycine application (n=4 neurons/3 mice). Nonparametric t-test; Wilcoxon test, ns=p>0.05. C) Quantification of glycine effects on neuronal excitability by rheobase current under control condition and glycine application (n=4 neurons/3 mice). Nonparametric t-test; Wilcoxon test, ns=p>0.05. […]
Electrophysiological recordings from layer II-III and layer V neurons of the prelimbic cortex were performed with C57Bl6 mice of either sex aged between 6-12 weeks. […] The Rheobase current was defined as the minimum current necessary to elicit the first AP and changes in neuronal excitability were assessed by counting the number of spikes evoked in response to 1-s depolarizing ramp ranging from 0 to 200 pA with a 20-s intertrial interval. […]

For `NCC(=O)O` [glycine], which “affinity of GlyRs for glycine relative to mGlyR” value (GlyRs) is on record?
The value was “an order of magnitude lower affinity”.

And the “intrinsic excitability of layer V neurons” value [1]?
The value was “did not produce any changes”.

And the resting membrane potential ([1]; layer V)?
The resting membrane potential was “ns”.
